Results published in patent publication US20260176260A1, “DUAL RAF AND TUBULIN INHIBITORS AND METHODS OF USE THEREOF” (Deciphera Pharmaceuticals, LLC, priority 2023, published 2026).
Where two headings read alike, the source gives them in different places.

How the values were obtained:
[1] = biological target: T1, Porcine Brain Tubulin (Sus scrofa, UniProt P02550+P02554); assay: Biochemical tubulin polymerization assay; details: Table 5; read-out: Tubulin Biochem
T1 construct: Porcine Brain Tubulin (T240); purchased Cytoskeleton, Inc T240; BK011P; host or cells: porcine brain

[2] = test system: MiaPaca-2 cells; assay: MiaPaca-2 cell proliferation assay (resazurin); type: cell-based; details: Homo sapiens, MIA PaCa-2, read-out: MiaPaca-2
Experimental: MiaPaca-2 cells (catalog #CRL-1420) are obtained from the American Type Culture Collect (ATTC, Manassas, VA). Briefly, cells were grown in DMVEM supplemented with […] fetal bovine serum (Invitrogen, Carlsbad, CA), 2.5% New Zealand sourced horse serum and 1% Penicillin/Streptomycin/L-Glutamine at 37° C., […], and […]. Cells are expanded until reaching […] at which point they are sub-cultured or harvested for assay use. For assays completed in 96-well plates, a serial dilution of test compound is dispensed into a 96-well black clear bottom plate in triplicate. Three thousand cells are added per well in 200 μL complete growth medium in the 96-well plate. Plates are incubated for 67 to 72 h at 37° C., 5% CO2, and 95% humidity. At the end of the incubation, 40 μL of a […] solution of resazurin (Sigma, St. Louis, MO) in PBS is added to each well of the plate and plates are incubated for an additional 5 to 6 h at 37° C., 5% CO2, and 95% humidity. For 384-well assays, a threefold, 8-point serial dilution of compound was spotted column wise into a 384 well black, clear bottom, tissue culture treated plate using the Beckman Coulter Echo 650. Likewise, a threefold, 8-point serial dilution of cobimetinib was spotted row wise into the 384 well black, clear bottom plate containing compound. DMSO concentration was constant across all wells at 0.4%. Seven hundred fifty cells are added per well in 50 μL complete growth medium in each 384-well plate. Plates are incubated for 67 to 72 h at 37° C., 5% CO2, and 95% humidity. At the end of the incubation, 10 μL of a 440 μM solution of resazurin (Sigma, St. Louis, MO) in PBS is added to each well of the plate and plates are incubated for an additional 4 to 6 h at 37° C., 5% CO2, and 95% humidity. Plates are read on a Synergy2 or equivalent reader (Biotek, Winooski VT) using an excitation of 540 nm and an emission of 600 nm. Data is analyzed using Prism software (Graphpad, San Diego, CA) to calculate IC50 values.

[3] = test system: HPAF-II cells; assay: HPAF-II cell proliferation assay (resazurin); type: cell-based; details: Homo sapiens, read-out: HPAF-II
Experimental: (§1) HPAF-II cells (catalog #CRL-1997) are obtained from the American Type Culture Collect (ATCC, Manassas, VA). Briefly, cells are grown in Minimum Essential Media supplemented with 10% characterized fetal bovine serum (Invitrogen, Carlsbad, CA) and 1% Penicillin/Streptomycin/L-Glutamine at 37° C., 5% CO2, and 95% humidity. Cells are expanded until reaching 70-95% confluency at which point they are sub-cultured or harvested for assay use. A serial dilution of test compound is dispensed into a 384-well black clear bottom plate in triplicate. 750 cells are added per well in 50 μL complete growth medium in the 384-well plate. Plates are incubated for 115 to 120 h at 37° C., 5% CO2, and 95% humidity. At the end of the incubation, 40 μL of a […] solution of resazurin (Sigma, St. Louis, MO) in PBS is added to each well of the plate and plates are incubated for an additional 18 to 24 h at 37° C., 5% CO2, and 95% humidity. Plates are read on a Synergy2 or equivalent reader (Biotek, Winooski, VT) using an excitation of 540 nm and an emission of 600 nm. Data is analyzed using Prism software (Graphpad, San Diego, CA) to calculate IC50 values.

[4] = test system: HCT-116 cells; assay: HCT-116 cell proliferation assay (resazurin); type: cell-based; details: Homo sapiens, read-out: HCT-116
Experimental: HCT-116 cells (catalog #CCL-247) are obtained from the American Type Culture Collect (ATCC, Manassas, VA). Briefly, cells are grown in McCoy's 5A supplemented with 10% characterized fetal bovine serum (Invitrogen, Carlsbad, CA) and 1% Penicillin/Streptomycin/L-Glutamine at 37° C., 5% CO2, and 95% humidity. Cells are expanded until reaching 70-95% confluency at which point they are sub-cultured or harvested for assay use. A serial dilution of test compound is dispensed into a 384-well black clear bottom plate in triplicate. 375 cells are added per well in 50 μL complete growth medium in the 384-well plate. Plates are incubated for 67 to 72 h at 37° C., 5% CO2, and 95% humidity. At the end of the incubation, 40 μL of a […] solution of resazurin (Sigma, St. Louis, MO) in PBS is added to each well of the plate and plates are incubated for an additional 4 to 5 h at 37° C., 5% CO2, and 95% humidity. Plates are read on a Synergy2 or equivalent reader (Biotek, Winooski, VT) using an excitation of 540 nm and an emission of 600 nm. Data is analyzed using Prism software (Graphpad, San Diego, CA) to calculate IC50 values.

[5] = test system: Pa16c cells; assay: Pa16c cell proliferation assay (resazurin); type: cell-based; details: Table 2, inhibition of cell proliferation
Experimental: as §1, with “Pa16c” for “HPAF-II”, “cells” for “cells (catalog #CRL-1997)”, “Dr. Channing Der, University of North Carolina at Chapel Hill.” for “the American Type Culture Collect (ATCC, Manassas, VA).”, “Dulbecco's Modified Eagle Medium” for “Minimum Essential Media”, “67” for “115”, “72” for “120”

[6] = biological target: T2, C-Raf kinase (Homo sapiens, UniProt P04049, Y340D/Y341D); assay: Biochemical assay for C-Raf (coupled pyruvate kinase/lactate dehydrogenase); details: read-out: CRAF
T2 construct: C-Raf residues 306-end; Y340D, Y341D with N-; purchased Sigma

[7] = biological target: T3, B-Raf kinase (Homo sapiens, UniProt P15056); assay: Biochemical assay for B-Raf (coupled pyruvate kinase/lactate dehydrogenase); details: read-out: BRAF
T3 construct: purchased Sigma

[8] = test system: tubulin polymerization in HCT-116 cells; assay: Cellular tubulin polymerization assay (pellet/supernatant a-tubulin, HCT-116 cells); type: cell-based; details: Table 5, HCT-116 cells; read-out: Tubulin Cellular
Experimental: HCT-116 cells (catalog #CCL-247) are obtained from the American Type Culture Collect (ATCC, Manassas, VA). Briefly, cells are grown in McCoy's 5A supplemented with 10% characterized fetal bovine serum (Invitrogen, Carlsbad, CA) and 1% Penicillin/Streptomycin/L-Glutamine at 37° C., 5% CO2, and 95% humidity. Cells are expanded until reaching 70-95% confluency at which point they are sub-cultured or harvested for assay use. 450000 cells are added per well in 1500 μL complete growth medium in a tissue culture treated, 12-well plate. Plates are incubated for 18 to 24 h at 37° C., 5% CO2, and 95% humidity. At the end of the incubation, 2000 μL of base culture media is added to each well, followed by a serial dilution of compound. Plates are incubated for an additional 1 h at 37° C., 5% CO2, and 95% humidity. Lysates are generated by the addition of 100 μL Lysis and Microtubule Stabilization Buffer 1 (LMS01, Cytoskeleton Inc, Denver, CO) supplemented with GTP (BST06, Cytoskeleton Inc), ATP (BSA04, Cytoskeleton Inc), and Protease Inhibitor Cocktail Stock (PIC02, Cytoskeleton Inc). Cells are scraped off wells using a rubber cell scraper and collected in a clean 96-well plate. Lysates are centrifuged at 1000×g, 37° C. for 10 min and supernatant fraction is placed into an additional 96-well plate. The remaining pellet fraction is reconstituted in 100 μL LMS01 buffer and sonicated for 10 min. Pellet and Supernatant fractions are probed for a-tubulin via western blot analysis on the Jess System or equivalent (Bio-techne, Minneapolis, MN). Data is analyzed using Prism software (Graphpad, San Diego, CA) to calculate IC50 values.

[9] = Table 1, inhibition of biochemical activity
[10] = Table 2, inhibition of cell proliferation

T3 sequence (P15056 416-766): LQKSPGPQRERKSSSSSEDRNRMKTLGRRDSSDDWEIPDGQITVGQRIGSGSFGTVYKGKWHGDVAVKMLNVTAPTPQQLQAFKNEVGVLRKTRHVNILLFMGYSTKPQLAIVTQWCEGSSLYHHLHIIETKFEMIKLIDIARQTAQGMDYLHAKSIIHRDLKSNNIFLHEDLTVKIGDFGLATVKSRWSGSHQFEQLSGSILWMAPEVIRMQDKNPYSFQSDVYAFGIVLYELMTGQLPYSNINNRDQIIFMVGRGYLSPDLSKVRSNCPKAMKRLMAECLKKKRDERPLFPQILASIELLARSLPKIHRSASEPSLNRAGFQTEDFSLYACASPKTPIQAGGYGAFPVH
T2 sequence (P04049 307-648 Y340D/Y341D): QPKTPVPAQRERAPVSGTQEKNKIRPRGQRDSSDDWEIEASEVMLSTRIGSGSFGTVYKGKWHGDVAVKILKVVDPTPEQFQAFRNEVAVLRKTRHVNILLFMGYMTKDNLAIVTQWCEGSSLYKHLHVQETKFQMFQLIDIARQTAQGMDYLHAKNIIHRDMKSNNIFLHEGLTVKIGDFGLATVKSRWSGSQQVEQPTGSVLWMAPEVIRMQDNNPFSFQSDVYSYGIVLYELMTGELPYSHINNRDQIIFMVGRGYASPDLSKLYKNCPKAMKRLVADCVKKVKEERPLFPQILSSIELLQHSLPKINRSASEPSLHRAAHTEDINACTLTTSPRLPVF
T1 sequence (P02550 whole entry): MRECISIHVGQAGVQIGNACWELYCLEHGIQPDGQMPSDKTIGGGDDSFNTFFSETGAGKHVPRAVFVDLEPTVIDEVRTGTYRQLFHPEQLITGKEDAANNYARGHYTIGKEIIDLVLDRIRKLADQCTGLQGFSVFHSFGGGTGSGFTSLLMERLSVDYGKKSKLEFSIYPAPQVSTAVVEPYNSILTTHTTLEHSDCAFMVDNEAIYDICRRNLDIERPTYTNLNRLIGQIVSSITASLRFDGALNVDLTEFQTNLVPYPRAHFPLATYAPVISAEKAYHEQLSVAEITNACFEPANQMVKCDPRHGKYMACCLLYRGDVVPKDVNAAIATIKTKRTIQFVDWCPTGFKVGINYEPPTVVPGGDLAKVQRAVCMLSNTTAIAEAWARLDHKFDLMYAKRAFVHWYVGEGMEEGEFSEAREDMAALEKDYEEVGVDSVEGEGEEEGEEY
T1 sequence (P02554 whole entry): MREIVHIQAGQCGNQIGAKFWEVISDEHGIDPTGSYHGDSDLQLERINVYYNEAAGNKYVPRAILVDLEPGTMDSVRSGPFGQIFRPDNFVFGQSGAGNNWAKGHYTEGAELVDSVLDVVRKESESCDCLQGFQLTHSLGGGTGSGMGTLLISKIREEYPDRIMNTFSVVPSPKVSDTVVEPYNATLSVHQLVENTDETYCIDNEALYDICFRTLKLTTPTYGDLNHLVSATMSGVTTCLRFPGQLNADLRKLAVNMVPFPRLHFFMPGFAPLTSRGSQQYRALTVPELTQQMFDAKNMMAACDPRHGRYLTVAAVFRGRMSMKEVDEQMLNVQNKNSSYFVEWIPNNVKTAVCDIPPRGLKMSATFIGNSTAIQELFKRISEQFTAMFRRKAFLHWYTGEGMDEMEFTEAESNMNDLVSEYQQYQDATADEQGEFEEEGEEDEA

Row | SMILES | IC50 [1] [nM] | IC50 ([2]; Table 5) [nM] | IC50 ([3]; Table 5) [nM] | IC50 ([4]; Table 5) [nM] | IC50 [5] [nM] | IC50 [6, 9] [nM] | IC50 [2, 10] [nM] | IC50 [3, 10] [nM] | IC50 [4, 10] [nM] | IC50 [7, 9] [nM] | IC50 [8] [nM] | IC50 ([6]; Table 5) [nM] | IC50 ([7]; Table 5) [nM]
1 | CC(C)(C)c1nc(-c2cccc(NS(=O)(=O)c3c(F)cccc3F)c2F)c(-c2ccnc(N)n2)s1 [Dabrafenib, reference compound] | > 100000 | 1000 to 10000 | 1000 to 10000 | 1000 to 10000 |  |  |  |  |  |  |  |  | 
2 | CNC(=O)c1cc(-c2cncc(-c3cc(NC(=O)c4cc(C#N)cnn4)ccc3C)c2)ccn1 [Example 46] |  |  |  |  | 1000 to 10000 | 100 to 500 | 1000 to 10000 | 1000 to 10000 | 500 to 1000 | 100 to 500 |  |  | 
3 | CNC(=O)c1cc(-c2cc(-c3cc(NC(=O)c4cc(C(F)(F)F)cnn4)ccc3C)cc(NC)n2)ccn1 [Example 47] |  |  |  |  | < 100 | < 100 | < 100 | < 100 | < 100 | < 100 |  |  | 
4 | CNC(=O)c1cc(-c2cc(-c3cc(NC(=O)c4cc(C(F)(F)F)cnn4)ccc3C)cc(N)n2)ccn1 [Example 48] |  |  |  |  | 1000 to 10000 | < 100 | 500 to 1000 | 100 to 500 | 100 to 500 | < 100 |  |  | 
5 | CNC(=O)c1cc(-c2cc(-c3cc(NC(=O)c4cc(C#N)cnn4)ccc3C)cc(OCCO)n2)ccn1 [Example 49] |  |  |  |  | < 100 | < 100 | 500 to 1000 | 500 to 1000 | 500 to 1000 | < 100 |  |  | 
6 | Cc1ccc(NC(=O)N2CC[C@@H](CC(F)(F)F)C2)cc1-c1cc(N[C@H](C)CO)nc(N2CCOCC2)c1 [Exarafenib, reference compound] |  | 1000 to 10000 | 1000 to 10000 | 500 to 1000 |  |  |  |  |  |  | 1000 to 10000 |  | 
7 | Cc1ccc(NC(=O)c2ccnc(C(F)(F)F)c2)cc1-c1cc(OCCO)nc(N2CCOCC2)c1 [Naporafenib, reference compound] | > 100000 | 1000 to 10000 | 1000 to 10000 | 1000 to 10000 |  |  |  |  |  |  |  | < 100 | < 100
